# System: formation of NO in cell strain RAW 264.7
# Experiment: Activity for inhibiting the formation of NO (LPS-stimulated RAW 264.7 cells, Griess reagent)
# Format: cell-based
# Details: Mus musculus, RAW264.7, 1 × 10^-6 M, LPS 100 ng/ml, 24 hours, read-out: Ratio of formed amount of NO (reference culture medium = 100)
# Experimental: [Evaluation test of activity for inhibiting the formation of NO]
# Pharmacological tests of pyrimidine derivatives obtained in Examples 1, 12, 14, 19, 22, 24, 29 and 42 used as test compounds were conducted as follows.
# Preparation of culture media and method of cell culture were conducted in accordance with those described in J. Biol. Chem., Vol. 269, No. 1, pp. 711-715, (1994), and determination of formed amount of NO was conducted in accordance with the method described in Anal. Biochem., Vol. 126, pp. 131-138, (1982), respectively.
# (1) Cell Culture and Inducible Synthesis of NO in the Cells by Stimulation with Lipopolysaccharide (LPS)
# Cell strain RAW 264.7 (ATCC) derived from the macrophage of mouse was placed on each one of the wells on a microplate having 24-wells so as to put the cells in an amount of 1×10^5 cells/U (well). The cells were incubated for 24 hours in a phenol red free-RPMI-1640 culture medium (mfd. by GIBCO) to which 10% of fetal bovine serum, 100 U/ml of penicillin (mfd. by Dainippon Pharmaceutical Co., Ltd.) and 100 μg/ml of streptomycin (mfd. by Dainippon Pharmaceutical Co., Ltd.) were added.
# Next, the reference culture medium was prepared by adding 2 mM of L-arginine (mfd. by Wako Pure Chemical Industries, Ltd.), 10 μM/ml of tetrahydrobiopterin (mfd. by ALEXIS) and 100 ng/ml of lipopolysaccharide (LPS)(mfd. by Sigma Chemical Co.) to a phenol red free-RPMI-1640 culture medium. While, the reference culture medium without containing LPS was used as the blanc culture medium.
# On the other hand, the test culture medium, containing the test compound was prepared by adding 0.2% of the test compounds dissolved in dimethyl sulfoxide (DMSO) to the reference culture medium to adjust the final concentration of the test compound to 1×10^-6 M.
# Each one of the blank culture medium, reference culture medium and test culture medium containing the test compound was added, respectively to the well on the micro-plate where the above-mentioned cell strain RAW 264.7 was placed, and was incubated for 24 hours.
# (2) Measurement of the Amount of Formed NO
# Quantitative measurement of NO cannot be made directly, due to its unstability. Therefore, the amount of NO is measured indirectly, thus by forming nitrous acid ion (hereunder referred to as NO2^-) which is stable product derived from NO by use of Griess reagent [consisting of 1% of sulfanylamide and 0.1% of sulfuric acid solution containing 0.1% N-(1-naphthyl)ethylenediamine dihydrochloride], and measure the amount of NO2^-.
# Into the supernatant of each one of the culture media was admixed with the same amount of Griess reagent respectively, and subjected to reaction at room temperature for 10 minutes, then the optical absorbance at 540 nm of the thus reacted culture medium was measured. While, the optical absorbance of sodium nitrite solution diluted with the culture medium was referred to as the standard value, and the amount of NO2^- formed in each one of these incubated culture media was measured. The amounts of NO2^- formed in the reference culture medium and the test culture medium were corrected by using the value of formed amount of NO2^- in the blanc culture medium.
# On the basis of that the ratio of amounts of NO2^- formed in the reference culture medium and that of formed in the test culture medium is corresponding to the ratio of amount of NO formed in the reference culture medium and that of formed in the test culture medium. Thus the amount of NO2^- formed in the reference culture medium is referred to as the value of 100, and the value of amount of NO2^- formed in the test culture medium is referred to as amount of NO formed in the test culture medium.
structure (smiles),measurement,value
"COCc1cc(=O)n2ncc(-c3ccc(Sc4ccccc4)cc3)c2[nH]1 [Example 1, 4,7-dihydro-5-methoxymethyl-7-oxo-3-(4-phenylthiophenyl)pyrazolo[1,5-a]pyrimidine]",activity at 1 µM,56%

# — patent US6197774A, “Pyrimidine derivative” (Otsuka Pharmaceutical Co., Ltd., priority 1997, dated 2001)
